Experiments:
A2058 human melanoma [1] = experiment: histology of A2058 tumors from DTIC-treated mice (melanin release); type: in vivo; details: 50 mg/kg IP for 5 days; H&E, iron stain, melanin bleach; FIG. 3
Protocol: Combination of chemotherapy and RIT. For combined chemotherapy with dacarbazine and RIT of A2058 melanoma-bearing nude mice, a preliminary experiment was performed which was aimed at determining the tolerability of dacarbazine by tumor-bearing mice and the ability of dacarbazine treatment to release some melanin from the melanoma cells. For this purpose 10 mg/mL dacarbazine in citrate buffer with pH ˜5.5 was prepared by dissolving 100 mg dacarbazine (Sigma) in 9.5 mL citrate buffer, pH 3.9 and 0.5 mL 0.1 M HCl. Five mice with A2058 tumors were treated for 5 days IP with 50 mg/kg dacarbazine (1.1 mg/mouse). Three days after completion of DTIC treatment, two mice were sacrificed, their tumors removed, fixed in ethanol/buffered formalin, cut into 5 μm slices and analyzed histologically for the presence of melanin by staining with hematoxylin and eosin (H&E), iron staining or by melanin bleach. The slides were viewed under 400× magnification in polarized light.

A2058 human melanoma [2] = experiment: chemotherapy, RIT and combination of chemotherapy and RIT in A2058 melanoma-bearing mice; type: in vivo; details: FIG. 4A
Protocol: Animal model and therapy studies. All animal studies were carried out in accordance with the guidelines of the Institutes for Animal Studies at the Albert Einstein College of Medicine. For RIT studies, 6-12 week-old female nude mice were implanted subcutaneously with 8×10^6 A2058 human melanoma cells into the right flank and used for therapeutic experiments 12 days after tumor volumes were approximately 0.15 cm^3 (0.02-0.4 cm^3).
For the experiment comparing the efficacy of chemotherapy, RIT and combination of chemotherapy, and RIT in A2058 melanoma-bearing mice, mice were inoculated with A2058 melanoma cells, randomized into groups of five after tumor volumes reached 0.15 cm^3 (0.02-0.4 cm^3). On Day 0 the treatment of groups #1 and 2 with 50 mg/kg DTIC for 5 consecutive days IP was initiated. Mice in group #3 received a single IP injection of 1 mCi ^188Re-6D2 mAb on Day 0. Twenty-four hrs after completion of pre-treatment with DTIC (Day 6), mice in group #2 received single IP dose of 1 mCi ^188Re-6D2 mAb. Group #4 was given PBS IP on Day 0.
Statistical analysis. The Wilcoxon rank sum test was used to compare tumor sizes between different treatment groups in therapy studies. Differences were considered statistically significant when P values were <0.05.

A2058 tumor metabolism = experiment: ^18F-FDG microPET of RIT or chemotherapy treated melanoma-bearing mice; type: in vivo; details: re-imaged one week after initial PET scan; FIG. 5
Protocol: MicroPositron Emission Tomography (microPET) of RIT or chemotherapy treated melanoma-bearing mice. To understand the effects of RIT with melanin-binding mAbs and chemotherapy with DTIC on A2058 tumor metabolism, microPET was performed of mice treated with DTIC or with RIT. For this purpose 6-7 mm in diameter tumor-bearing mice were fasted for 3 hrs, then placed in an anesthesia chamber with 1.5% isoflurane-oxygen mixture. Anesthesia continued through the IV injection, during a 1 hr uptake and through the imaging portion of the procedure. Each mouse was placed on a heating pad before scanning to maintain normal body temperature. Mice were injected via tail-vein with 11.1 to 14.8 MBq (300 to 400 μCi) ^18F-FDG and 1 hr later imaged in an R4 microPET scanner manufactured by CTI Concorde. The Full Width at Half Maximum for the R4 is about 2.1 mm with a field of view of 120 mm and a depth of field of 78 mm. Images were acquired for 10 minutes with a lower level discrimination of 350 keV and upper level discrimination of 650 keV. The timing window was set to 6 nsec. All of the default settings were selected during the histogram process. […] Data corrected for dead time counting losses, arc correction, random coincidences and the measured uniformity of detector responses (i.e. normalized) but not corrected for attenuation or scatter. […]

metastatic melanoma = details: patients with metastatic melanoma; Sun and Schuchter, 2001; cited from earlier work
mouse melanoma models = details: 50 mg/kg/day×5 days; Fodstad et al. 1980; cited from earlier work

## CN(C)N=Nc1[nH]cnc1C(N)=O [DTIC, 5-(3,3-dimethyl-1-triazeno)imidazole-4-carboxamide]
A2058 human melanoma [1]
  release of melanin from tumor cells (histology): releases some melanin from the cells
A2058 human melanoma [2]; compared with combined treatment or RIT alone, p=0.02
  tumor growth from day 15: started to grow much faster
A2058 human melanoma [2]; early time points post-therapy, compared with RIT alone
  tumor growth up to Day 15: more effective in impairing tumor growth than RIT alone
A2058 tumor metabolism
  ^18F-FDG uptake in tumors: became less diffuse and concentrated in the center of the tumor
Metastatic melanoma
  response rate: 15% to 20%
Mouse melanoma models
  tumor growth: effectively slowed tumor growth
